Tests used:
Assay type in all cases: in vivo
Details in all cases: evaluated after 13 days
Setaria faberi (SETFA) [1] = experiment: Pre-emergence Test, Setaria faberi (SETFA)
Setaria faberi (SETFA) [2] = experiment: Post-emergence Test, Setaria faberi (SETFA); design: key to percentage damage caused to the plant, SETFA (five-point scale): 5=81-100%, 4=61-80%, 3=41-60%, 2=21-40%, 1=0-20% damage
Method in brief: (§1)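 Pots sprayed with compound in acetone/water (50:50) with 0.5% Tween 20, at 1000 g/ha unless noted, glasshouse 24/16 °C, 14 h light, 65% humidity. Damage scored 13 days after spraying on a five-point scale (5=81-100% to 1=0-20%).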

[3] = tested on: Echinochloa crus-galli (ECHCG); experiment: Pre-emergence Test, Echinochloa crus-galli (ECHCG)
[4] = tested on: Ipomoea hederacea (IPOHE); experiment: Post-emergence Test, Ipomoea hederacea (IPOHE); design: key to percentage damage caused to the plant, IPOHE (five-point scale): 5=81-100%, 4=61-80%, 3=41-60%, 2=21-40%, 1=0-20% damage
Method in brief: as §1

[5] = tested on: Amaranthus palmeri (AMAPA); experiment: Post-emergence Test, Amaranthus palmeri (AMAPA); design: key: 5=81-100%, 4=61-80%, 3=41-60%, 2=21-40%, 1=0-20% damage
Method in brief: as §1

[6] = tested on: Amaranthus retoflexus (AMARE); experiment: Pre-emergence Test, Amaranthus retoflexus (AMARE)
Zea mays (ZEAMX) [7] = experiment: Post-emergence Test, Zea mays (ZEAMX); design: key to percentage damage caused to the plant, ZEAMX (five-point scale): 5=81-100%, 4=61-80%, 3=41-60%, 2=21-40%, 1=0-20% damage
Method in brief: as §1

[8] = tested on: Amaranthus palmeri (AMAPA); experiment: Pre-emergence Test, Amaranthus palmeri (AMAPA)
[9] = tested on: Echinochloa crus-galli (ECHCG); experiment: Post-emergence Test, Echinochloa crus-galli (ECHCG); design: key to percentage damage caused to the plant, ECHCG (five-point scale): 5=81-100%, 4=61-80%, 3=41-60%, 2=21-40%, 1=0-20% damage
Method in brief: as §1

Zea mays (ZEAMX) [10] = experiment: Pre-emergence Test, Zea mays (ZEAMX)
[11] = tested on: Ipomoea hederacea (IPOHE); experiment: Pre-emergence Test, Ipomoea hederacea (IPOHE)
[12] = tested on: Amaranthus retoflexus (AMARE); experiment: Post-emergence Test, Amaranthus retoflexus (AMARE); design: key to percentage damage caused to the plant, AMARE (five-point scale): 5=81-100%, 4=61-80%, 3=41-60%, 2=21-40%, 1=0-20% damage
Method in brief: as §1

| SMILES | Pre-emergence Test SETFA, percentage damage caused to the plant (five-point scale) (Setaria faberi (SETFA) [1]; 250 g/Ha (*)) | Pre-emergence Test SETFA, percentage damage caused to the plant (five-point scale) (Setaria faberi (SETFA) [1]; 1000 g/ha) | percentage damage caused to the plant, SETFA (five-point scale) (Setaria faberi (SETFA) [2]; 250 g/Ha) | percentage damage caused to the plant, SETFA (five-point scale) (Setaria faberi (SETFA) [2]; 1000 g/ha) | Pre-emergence Test ECHCG, percentage damage caused to the plant (five-point scale) ([3]; 250 g/Ha (*)) | Pre-emergence Test ECHCG, percentage damage caused to the plant (five-point scale) ([3]; 1000 g/ha) | percentage damage caused to the plant, IPOHE (five-point scale) ([4]; 250 g/Ha) | percentage damage caused to the plant, IPOHE (five-point scale) ([4]; 1000 g/ha) | percentage damage caused to the plant, AMAPA (five-point scale) ([5]; 250 g/Ha) | percentage damage caused to the plant, AMAPA (five-point scale) ([5]; 1000 g/ha) | Pre-emergence Test AMARE, percentage damage caused to the plant (five-point scale) ([6]; 1000 g/ha) | percentage damage caused to the plant, ZEAMX (five-point scale) (Zea mays (ZEAMX) [7]; 250 g/Ha) | percentage damage caused to the plant, ZEAMX (five-point scale) (Zea mays (ZEAMX) [7]; 1000 g/ha) | Pre-emergence Test AMAPA, percentage damage caused to the plant (five-point scale) ([8]; 1000 g/ha) | percentage damage caused to the plant, ECHCG (five-point scale) ([9]; 250 g/Ha) | percentage damage caused to the plant, ECHCG (five-point scale) ([9]; 1000 g/ha) | Pre-emergence Test ZEAMX, percentage damage caused to the plant (five-point scale) (Zea mays (ZEAMX) [10]; 1000 g/ha) | Pre-emergence Test IPOHE, percentage damage caused to the plant (five-point scale) ([11]; 1000 g/ha) | percentage damage caused to the plant, AMARE (five-point scale) ([12]; 250 g/Ha) | percentage damage caused to the plant, AMARE (five-point scale) ([12]; 1000 g/ha) | other results |
| --- | --- | --- | --- | --- | --- | --- | --- | --- | --- | --- | --- | --- | --- | --- | --- | --- | --- | --- | --- | --- | --- |
| CCn1c(Cn2nc(C(F)(F)F)cc2OC)cc(=O)c(C(=O)O)c1-c1ccc(Cl)c(Cl)c1 [Compound 145, 2-(3,4-dichlorophenyl)-1-ethyl-6-[[5-methoxy-3-(trifluoromethyl)pyrazol-1-yl]methyl]-4-oxo-pyridine-3-carboxylic acid] | 5 (5=81-100%) | 5 (5=81-100%) | 3 (3=41-60%) | 4 (4=61-80%) | 2 (2=21-40%) | 4 (4=61-80%) | 3 (3=41-60%) | 3 (3=41-60%) | 0 | 3 (3=41-60%) | 1 (1=0-20%) | 1 (1=0-20%) | 3 (3=41-60%) | 0 | 3 (3=41-60%) | 4 (4=61-80%) | 0 | 3 (3=41-60%) | 1 (1=0-20%) | 3 (3=41-60%) | Pre-emergence Test AMARE, percentage damage caused to the plant (five-point scale) ([6]; 250 g/Ha (*)): 0; Pre-emergence Test AMAPA, percentage damage caused to the plant (five-point scale) ([8]; 250 g/Ha (*)): 0; Pre-emergence Test ZEAMX, percentage damage caused to the plant (five-point scale) (Zea mays (ZEAMX) [10]; 250 g/Ha (*)): 0; Pre-emergence Test IPOHE, percentage damage caused to the plant (five-point scale) ([11]; 250 g/Ha (*)): 0 |
| Cn1c(Cn2ccc(C(F)(F)F)n2)cc(=O)c(C(=O)O)c1-c1ccc(C#N)c(Cl)c1 [Compound 117, 2-(3-chloro-4-cyano-phenyl)-1-methyl-4-oxo-6-[[3-(trifluoromethyl)pyrazol-1-yl]methyl]pyridine-3-carboxylic acid] | 4 (4=61-80%) | 5 (5=81-100%) | 3 (3=41-60%) | 4 (4=61-80%) | 3 (3=41-60%) | 4 (4=61-80%) | 3 (3=41-60%) | 3 (3=41-60%) | 0 | 2 (2=21-40%) | 2 (2=21-40%) | 1 (1=0-20%) | 4 (4=61-80%) | 2 (2=21-40%) | 3 (3=41-60%) | 4 (4=61-80%) | 1 (1=0-20%) | 2 (2=21-40%) | 0 | 1 (1=0-20%) | Pre-emergence Test AMARE, percentage damage caused to the plant (five-point scale) ([6]; 250 g/Ha (*)): 0; Pre-emergence Test AMAPA, percentage damage caused to the plant (five-point scale) ([8]; 250 g/Ha (*)): 1 (1=0-20%); Pre-emergence Test ZEAMX, percentage damage caused to the plant (five-point scale) (Zea mays (ZEAMX) [10]; 250 g/Ha (*)): 0; Pre-emergence Test IPOHE, percentage damage caused to the plant (five-point scale) ([11]; 250 g/Ha (*)): 0 |
| CCn1c(Cn2nccc2Cl)cc(=O)c(C(=O)O)c1-c1ccc(Cl)c(Cl)c1 [Compound 80, 6-[(5-chloropyrazol-1-yl)methyl]-2-(3,4-dichlorophenyl)-1-ethyl-4-oxo-pyridine-3-carboxylic acid] | 4 (4=61-80%) | 5 (5=81-100%) | 3 (3=41-60%) | 4 (4=61-80%) | 3 (3=41-60%) | 5 (5=81-100%) | 4 (4=61-80%) | 3 (3=41-60%) | 2 (2=21-40%) | 2 (2=21-40%) | 0 | 1 (1=0-20%) | 3 (3=41-60%) | 1 (1=0-20%) | 3 (3=41-60%) | 4 (4=61-80%) | 0 | 3 (3=41-60%) | 2 (2=21-40%) | 2 (2=21-40%) | Pre-emergence Test AMARE, percentage damage caused to the plant (five-point scale) ([6]; 250 g/Ha (*)): 0; Pre-emergence Test AMAPA, percentage damage caused to the plant (five-point scale) ([8]; 250 g/Ha (*)): 1 (1=0-20%); Pre-emergence Test ZEAMX, percentage damage caused to the plant (five-point scale) (Zea mays (ZEAMX) [10]; 250 g/Ha (*)): 0; Pre-emergence Test IPOHE, percentage damage caused to the plant (five-point scale) ([11]; 250 g/Ha (*)): 2 (2=21-40%) |
| COCCn1c(Cn2ccc(C(F)(F)F)n2)cc(=O)c(C(=O)O)c1-c1ccc(Cl)c(Cl)c1 [Compound 170, 2-(3,4-dichlorophenyl)-1-(2-methoxyethyl)-4-oxo-6-[[3-(trifluoromethyl)pyrazol-1-yl]methyl]pyridine-3-carboxylic acid] | – | 4 (4=61-80%) | 3 (3=41-60%) | 4 (4=61-80%) | – | 3 (3=41-60%) | 3 (3=41-60%) | 3 (3=41-60%) | 0 | 1 (1=0-20%) | 0 | 0 | 1 (1=0-20%) | 0 | 3 (3=41-60%) | 4 (4=61-80%) | 0 | 2 (2=21-40%) | 0 | 1 (1=0-20%) | – |

— patent US20250098679A1, “HERBICIDAL PYRIDONE DERIVATIVES” (SYNGENTA CROP PROTECTION AG, priority 2021, published 2025)
